Data on 18 compounds can be found in US20090005385A1, “Treatment or Prevention of Cancer or Cardiovascular Disease with Methenyltetrahydrofolate Synthetases” (CORNELL RESEARCH FOUNDATION, INC., priority 2004, published 2009).

The target of test [1] is T1, MTHFS (Mus musculus, UniProt Q9D110).
T1 sequence (Q9D110 1-203): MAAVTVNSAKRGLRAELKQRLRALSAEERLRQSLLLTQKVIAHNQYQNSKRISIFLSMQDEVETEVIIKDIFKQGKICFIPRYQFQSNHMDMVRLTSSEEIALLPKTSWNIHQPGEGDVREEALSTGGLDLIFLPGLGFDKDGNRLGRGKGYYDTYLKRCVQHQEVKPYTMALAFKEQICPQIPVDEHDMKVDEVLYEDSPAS
Briefly: Inhibition of MTHFS by folates/antifolates, reaction specificity (Ki, Km). The conditions noted are these: for Km: substrate of MTHFS. Format: biochemical. The method, then: Tissue samples were sonicated four times for 15 s in a buffer containing 100 mM HEPES pH 7.0, 100 mM sodium chloride, 5 mM EDTA, 1% Tween-20. The solution was clarified by centrifugation. MTHFS activity was determined using a spectrophotometer by monitoring the appearance of 5,10-methenyltetrahydrofolate, which has an absorbance maximum at 355 nm. For a typical assay, 50 μL of clarified tissue supernatant was added to a quartz cuvette containing 100 μM (6S)-5-formylTHF, 1 mM Mg-ATP and 100 mM MES, pH 6.0 and the rate of 5,10-methenylTHF formation was quantified. Activity measurements were normalized to total protein that was quantified using the Lowry-Bensadoun method (Bensadoun et al., “Assay of Proteins in the Presence of Interfering Materials,” Anal Biochem 70:241-250 (1976), which is hereby incorporated by reference in its entirety).
Several 10-formyl-substituted folates were screened for their ability to inhibit wild-type MTHFS.

In test [2] the test system is MCF-7 cells. Briefly: Folate turnover in cultured cells (pulse-chase). It counts as cell-based, human. The following applies: 20 μM in chase medium. The method, then:
Cell monolayers at 75% confluence were washed with PBS, then labeled for 12 h in defined αMEM lacking folate and glycine and supplemented with 25 nM (6S)-[^3H]5-formylTHF. For the chase, cell monolayers were washed with 10 ml of PBS, trypsinized, and pelleted by centrifugation. The cells were seeded in triplicate (1×10^6 cells) into 100 mm culture plates containing 10 ml of defined αMEM supplemented with 2 μM folic acid. Catecholamines (20 μM dopamine, NADA, and L-dopa) were prepared freshly and added to the chase media prior to the addition of labeled cells. Cells were harvested at defined time points, the medium was removed and the tritium in the medium was quantified. The cell monolayers were washed with PBS and lysed with 0.2 M ammonium hydroxide. Tritium remaining in the cells was quantified using a Beckman LS 8100 liquid scintillation counter.
Catecholamine availability may be rate limiting for MTHFS-catalyzed folate catabolism in MCF-7 cells. The effects of exogenous catecholamines on folate turnover rates were determined using pulse-chase analyses in MCF-7 cells. Folate turnover in MCF-7 cells labeled with [^3H]-5-formylTHF is biphasic, with an initial rapid phase of turnover followed by a slower phase (Anguera et al., J. Biol. Chem. 278:29856-29862 (2003), which is hereby incorporated by reference in its entirety). Addition of 20 μM NADA to the chase medium increased the magnitude of the rapid phase of folate turnover by 12% compared to untreated cells (FIG. 11A). […] To distinguish between these two mechanisms, 20 μM dopamine and L-dopa were added to the chase medium. Dopamine is the precursor of NADA, and both dopamine and L-dopa can function as oxidants following oxidation of their diphenolic ring generating dopamine-quinone or dopa-quinone (Rescigno et al., Biochemical Pharmacology 56:1089-1096 (1998); Graham, D. G. Mol. Pharmacol. 14:633-643 (1978), which are hereby incorporated by reference in their entirety). […] The addition of dopamine to the culture medium increased the magnitude of the rapid phase of folate turnover by only 4% relative to untreated cells (FIG. 11A). The minor effect of dopamine on folate turnover may reflect N-acetyltransferase-mediated dopamine acetylation that generating NADA. […] In summary, the pulse chase experiments indicate that NADA may be limiting for in vivo folate catabolism, and NADA may function specifically as the electron acceptor molecule for MTHFS-mediated folate catabolism.

For test [3], the system named is MCF-7 cells. The experiment in a line: Radiolabeled folate accumulation in cultured cells treated with catecholamines. Format: cell-based, human. The conditions noted are these: 12 h, 25 nM (6S)-[^3H]-5-formylTHF, 0-150 μM catecholamine. On the procedure: Cell monolayers at 70% confluence in 6-well plates were labeled for 12 h in defined αMEM lacking folate and glycine, but supplemented with 25 nM (6S)-[^3H]5-formylTHF and 0, 25 μM, 50 μM, 75 μM, 100 μM, or 150 μM NADA, dopamine, or epinephrine. Cells were harvested by washing with 5 mL PBS, trypsinized, and pelleted by centrifugation and viable cells (determined by their ability to exclude trypan blue) were quantified. The cell pellets were lysed with 0.2 M ammonium hydroxide, and the intracellular tritium was quantified using a Beckman LS 8100 liquid scintillation counter.
Because the addition of NADA to the chase medium increased folate turnover rates in MCF-7 cells, the effects of various catecholamines on [^3H]folate accumulation was investigated. Cells were cultured for 12 h in defined αMEM medium containing 25 nM (6S)-[^3H]-5-formylTHF and various concentrations of NADA, dopamine, and epinephrine, and cellular [^3H]folate content was determined.

[4] abbreviates: 37° C., pH 6.0, inhibitor of MTHFS, read-out: Ki.

Where “and” joins values, the source holds several entries; their conditions need not be identical. Equal entries are not always repeated. Where two headings read alike, the source gives them in different places.

Usually Ki stands for the dissociation constant of the complex between target and ligand, obtained from inhibition or displacement. As for `CN(CC1CNc2nc(N)[nH]c(=O)c2N1C=O)c1ccc(C(=O)N[C@@H](CCC(=O)N[C@@H](CCC(=O)N[C@@H](CCC(=O)O)C(=O)O)C(=O)O)C(=O)O)cc1` (mixture of isomers) [(6RS)5-formyl,10-methylTHFGlu3], in test [1] (setting [4]), the inhibitory constant (Ki) is 20 ± 2 µM. Same read-out and setting: to `CN(CC1CNc2nc(N)[nH]c(=O)c2N1C=O)c1ccc(C(=O)N[C@@H](CCC(=O)O)C(=O)O)cc1` (mixture of isomers) [(6RS)5-formyl,10-methylTHF] belongs 10 ± 1 µM; to `CN(CCC1CNc2nc(N)[nH]c(=O)c2N1C=O)c1ccc(C(=O)N[C@@H](CCC(=O)O)C(=O)O)cc1` (mixture of isomers) [(6RS)5-formyl,10-methylTHHF], 6 ± 3 µM. The term Km denotes the substrate concentration at which the rate is half of its maximum. In the case of `Nc1nc2c(c(=O)[nH]1)N(C=O)C(CNc1ccc(C(=O)NC(CCC(=O)NC(CCC(=O)NC(CCC(=O)O)C(=O)O)C(=O)O)C(=O)O)cc1)CN2` (racemic) [(6RS)5-formylTHFGlu3], in test [1] (37° C., pH 6.0), the Km came to 0.4 ± 0.1 µM.

Regarding `Nc1nc2c(c(=O)[nH]1)N(C=O)C(CCNc1ccc(C(=O)N[C@@H](CCC(=O)O)C(=O)O)cc1)CN2` (mixture of isomers) [(6RS)5-formylTHHF, 5-formyltetrahydrohomofolate], the Ki in test [1] (setting [4]) was 0.7 ± 0.3 µM. With `Nc1nc2c(c(=O)[nH]1)N(C=O)C(CNc1ccc(C(=O)O)cc1)CN2` (racemic) [(6RS)5-formylTHPteroate], the Km in test [1] (37° C., pH 6.0) is 33 ± 10 µM. `Nc1nc2c(c(=O)[nH]1)NC(CN(C=O)c1ccc(C(=O)N[C@@H](CCC(=O)N[C@@H](CCC(=O)N[C@@H](CCC(=O)O)C(=O)O)C(=O)O)C(=O)O)cc1)CN2` (mixture of isomers) [(6RS)10-formylTHFGlu3]: the “fold increased affinity (Ki) compared to the substrate 5-formylTHF triglutamate (Km)” value in test [1] is 13 fold. Besides, the Ki in test [1] (setting [4]) came out at 0.03 ± 0.01 µM. In the case of `Nc1nc2c(c(=O)[nH]1)NC(CCN(C=O)c1ccc(C(=O)NC(CCC(=O)O)C(=O)O)cc1)CN2` (racemic) [(6RS)10-formylTHHF], the “Ki fold lower than the Ki for 5-formylTHHF” value in test [1] is reported as 3 fold. Moreover, the inhibition constant (Ki) in test [1] (setting [4]) was determined as 0.19 ± 0.02 µM. As to `Nc1nc2c(c(=O)[nH]1)NC(CN(C=O)c1ccc(C(=O)O)cc1)CN2` (racemic) [(6RS)10-formylTHPteroate], the inhibitory constant (Ki) in test [1] (setting [4]) is 5 ± 2 µM. Regarding `Nc1nc2c(c(=O)[nH]1)NC(CN(C=O)c1ccc(C(=O)N[C@@H](CCC(=O)N[C@@H](CCC(=O)N[C@@H](CCC(=O)O)C(=O)O)C(=O)O)C(=O)O)cc1)CN2` (stereo partly shown) [10-formylTHF triglutamate], in test [1] (natural isomer, read-out: Ki for MTHFS), the Ki is 0.015 µM. Regarding `Nc1nc2ncc(CN(C=O)c3ccc(C(=O)N[C@@H](CCC(=O)O)C(=O)O)cc3)nc2c(=O)[nH]1` [10-formylfolic acid], in test [1] (setting [4]), the Ki came to 13 ± 6 µM. Also, the “fold increase of affinity for MTHFS by N^10 formylation of folic acid” value in test [1] (relative to folic acid) is listed as around 5 fold. Take `Nc1nc2c(c(=O)[nH]1)NC(CN(C=O)c1ccc(C(=O)N[C@@H](CCC(=O)O)C(=O)O)cc1)CN2` (stereo partly drawn) [(6R)10-formylTHF, 10-formyltetrahydrofolate]: the “fold increased affinity for MTHFS (Ki) compared to the substrate 5-formylTHF (Km)” value in test [1] was 56 fold and 60 fold. Further, the Ki in test [1] (setting [4]) came to 0.15 µM.

On to `Nc1nc2c(c(=O)[nH]1)N(C=O)C(CNc1ccc(C(=O)N[C@@H](CCC(=O)O)C(=O)O)cc1)CN2` (stereo partly drawn) [(6S)5-formylTHF, 5-formyl tetrahydrofolate], for which the Km in test [1] (37° C., pH 6.0) is 10 ± 3 µM. For the compound `N[C@@H](Cc1ccc(O)c(O)c1)C(=O)O` [L-dopa], the “folate turnover rates compared to untreated cells” value in test [2] is given as “did not affect folate turnover rates”.

For the compound `CNC[C@H](O)c1ccc(O)c(O)c1` [epinephrine], the “[^3H]folate accumulation” value in test [3] is “Neither the addition of dopamine nor epinephrine to culture media impaired [^3H]folate accumulation”. Take `Nc1nc2ncc(CNc3ccc(C(=O)N[C@@H](CCC(=O)N[C@@H](CCC(=O)N[C@@H](CCC(=O)O)C(=O)O)C(=O)O)C(=O)O)cc3)nc2c(=O)[nH]1` [folic acidGlu3]: in test [1] (setting [4]), the inhibitory constant (Ki) is 17 ± 3 µM. For the compound `Nc1nc2ncc(CNc3ccc(C(=O)NC(CCC(=O)NC(CCC(=O)NC(CCC(=O)NC(CCC(=O)NC(CCC(=O)O)C(=O)O)C(=O)O)C(=O)O)C(=O)O)C(=O)O)cc3)nc2c(=O)[nH]1` (stereo not shown) [folic acidGlu5], the Ki in test [1] (setting [4]) turned out to be 1 ± 0.3 µM. Still for that read-out and setting: to `Nc1nc2ncc(CNc3ccc(C(=O)N[C@@H](CCC(=O)O)C(=O)O)cc3)nc2c(=O)[nH]1` [folic acid] belongs 58 ± 5 µM.
